Experimental data published in US20100168102A9, “Amide Derivatives as Kinase Inhibitors” (Devgen NV, priority 2005, published 2010).

Key:
[1] = target: T1, PKC epsilon (Homo sapiens, UniProt Q02156); assay: Biochemical assay for PKC epsilon (fluorescence polarization, Protein Kinase C Assay Kit, Red); conditions: compounds of Formula XIV, Table 3; read-out: IC50 μM PKCε
T1 construct: purchased Invitrogen P2282
T1 sequence (Q02156 1-737): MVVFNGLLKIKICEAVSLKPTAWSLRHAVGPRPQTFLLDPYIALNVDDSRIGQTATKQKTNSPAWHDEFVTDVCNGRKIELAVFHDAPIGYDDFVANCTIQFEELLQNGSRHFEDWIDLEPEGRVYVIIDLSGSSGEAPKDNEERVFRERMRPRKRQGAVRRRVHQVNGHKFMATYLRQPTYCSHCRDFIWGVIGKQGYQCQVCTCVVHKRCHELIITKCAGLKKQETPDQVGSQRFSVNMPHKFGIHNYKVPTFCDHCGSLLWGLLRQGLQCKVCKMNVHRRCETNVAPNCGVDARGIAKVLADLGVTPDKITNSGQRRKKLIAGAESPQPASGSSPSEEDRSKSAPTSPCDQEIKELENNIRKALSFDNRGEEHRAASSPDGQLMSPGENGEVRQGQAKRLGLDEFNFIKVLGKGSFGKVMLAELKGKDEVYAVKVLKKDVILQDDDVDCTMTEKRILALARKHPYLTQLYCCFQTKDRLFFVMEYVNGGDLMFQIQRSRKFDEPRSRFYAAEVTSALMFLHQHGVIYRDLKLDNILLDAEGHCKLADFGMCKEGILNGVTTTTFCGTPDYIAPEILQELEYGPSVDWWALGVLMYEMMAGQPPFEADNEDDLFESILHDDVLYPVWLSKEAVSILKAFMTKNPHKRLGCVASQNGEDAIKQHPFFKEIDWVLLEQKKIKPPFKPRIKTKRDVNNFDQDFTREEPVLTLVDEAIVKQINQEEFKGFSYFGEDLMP
How it was run: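 PKC epsilon at 10 ng/ml final was preincubated 30 min at room temperature with compound in HEPES pH 7.4 with DTT and Triton X-100. ATP/protein substrate was then added in buffer with MgCl2 and CaCl2 for 80 min. The reaction was stopped with EDTA, phosphorylation was detected by fluorescence polarization with rhodamine tracer and anti-phosphoserine antibody, and IC50 values came from curve fits.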

[2] = target: T2, human ROCKα/ROCKII mix (Homo sapiens, UniProt O75116); assay: Biochemical assay for ROCK (fluorescence polarization, ROCK IMAP Kit); conditions: compounds of Formula XIV, Table 3
T2 construct: purchased Upstate Biotechnology 14-451
T2 sequence (O75116 11-552 limits assumed): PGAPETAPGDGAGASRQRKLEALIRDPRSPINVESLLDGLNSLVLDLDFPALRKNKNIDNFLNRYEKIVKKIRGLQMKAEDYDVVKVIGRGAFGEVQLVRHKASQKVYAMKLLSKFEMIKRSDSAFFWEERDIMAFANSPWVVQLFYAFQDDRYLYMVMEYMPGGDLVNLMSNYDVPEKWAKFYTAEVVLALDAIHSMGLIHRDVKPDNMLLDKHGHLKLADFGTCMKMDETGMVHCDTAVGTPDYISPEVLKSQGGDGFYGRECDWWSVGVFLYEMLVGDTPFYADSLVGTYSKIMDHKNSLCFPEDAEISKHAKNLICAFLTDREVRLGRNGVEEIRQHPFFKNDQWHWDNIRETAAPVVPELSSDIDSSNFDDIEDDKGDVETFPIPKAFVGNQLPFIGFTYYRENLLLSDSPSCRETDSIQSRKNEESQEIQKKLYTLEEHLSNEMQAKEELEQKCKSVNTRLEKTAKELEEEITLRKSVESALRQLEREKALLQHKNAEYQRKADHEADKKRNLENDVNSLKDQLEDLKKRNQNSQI

Compound | IC50 [1] [µM] | IC50 [2] [µM]
Cc1ccc(CCNC(=O)CC(N)c2ccc(C(=O)Nc3ccncc3)cc2)cc1 (stereo not shown) [Compound 284, 4-[1-Amino-2-(2-p-tolyl-ethyl-carbamoyl)-ethyl]-N-pyridin-4-yl-benzamide] | 5 to 50 | 0.05 to 0.5
CC(C)(C)c1ccc(CCNC(=O)CC(N)c2ccc(C(=O)Nc3ccncc3)cc2)cc1 (stereo not shown) [Compound 285, 4-{1-Amino-2-[2-(4-tert-butyl-phenyl)-ethylcarbamoyl]-ethyl}-N-pyridin-4-yl-benzamide] | 5 to 50 | 0.05 to 0.5
NC(CC(=O)NCCc1cccc(Cl)c1)c1ccc(C(=O)Nc2ccncc2)cc1 (stereo not shown) [Compound 298, 4-{1-Amino-2-[2-(3-chloro-phenyl)-ethylcarbamoyl]-ethyl}-N-pyridin-4-yl-benzamide] | 0.5 to 5 | 0.05 to 0.5
NC(CC(=O)NCCc1ccc(Cl)cc1)c1ccc(C(=O)Nc2ccncc2)cc1 (stereo not shown) [Compound 299, 4-{1-Amino-2-[2-(4-chloro-phenyl)-ethylcarbamoyl]-ethyl}-N-pyridin-4-yl-benzamide] | 0.5 to 5 | 0.05 to 0.5
CC(CNC(=O)CC(N)c1ccc(C(=O)Nc2ccncc2)cc1)c1ccc(Cl)cc1 (stereo not shown) [Compound 301, 4-{1-Amino-2-[2-(4-chloro-phenyl)-propylcarbamoyl]-ethyl}-N-pyridin-4-yl-benzamide] | 0.05 to 0.5 | 0.05 to 0.5
NC(CC(=O)NCCc1cccc(F)c1)c1ccc(C(=O)Nc2ccncc2)cc1 (stereo not shown) [Compound 306] | 5 to 50 | 0.5 to 5
NC(CC(=O)NCCc1ccc(F)cc1)c1ccc(C(=O)Nc2ccncc2)cc1 (stereo not shown) [Compound 307, 4-{1-amino-2-[2-(4-fluoro-phenyl)-ethylcarbamoyl]-ethyl}-N-pyridin-4-yl-benzamide] | 0.05 to 0.5 | 0.05 to 0.5
CC(C)(Cc1ccc(F)cc1)NC(=O)CC(N)c1ccc(C(=O)Nc2ccncc2)cc1 (stereo not shown) [Compound 308, 4-{1-amino-2-[2-(4-fluoro-phenyl)-1,1-dimethyl-ethylcarbamoyl]-ethyl}-N-pyridin-4-yl-benzamide] | 0.05 to 0.5 | 0.05 to 0.5
NC(CC(=O)NCCc1cccs1)c1ccc(C(=O)Nc2ccncc2)cc1 (stereo not shown) [Compound 311, 4-[1-amino-2-(2-thiophen-2-yl-ethylcarbamoyl)-ethyl]-N-pyridin-4-yl-benzamide] | 0.5 to 5 | 0.05 to 0.5
NC(CC(=O)NCCc1c[nH]c2ccccc12)c1ccc(C(=O)Nc2ccncc2)cc1 (stereo not shown) [Compound 313, 4-{1-Amino-2-[2-(1H-indol-3-yl)-ethylcarbamoyl]-ethyl}-N-pyridin-4-yl-benzamide] | 0.5 to 5 | 0.05 to 0.5
NC(CC(=O)Nc1ccccc1)c1ccc(C(=O)Nc2ccncc2)cc1 (stereo not shown) [Compound 316] | 0.5 to 5 | 0.05 to 0.5
COc1ccc(NC(=O)CC(N)c2ccc(C(=O)Nc3ccncc3)cc2)cc1 (stereo not shown) [Compound 319, 4-[1-Amino-2-(4-methoxy-phenyl-carbamoyl)-ethyl]-N-pyridin-4-yl-benzamide] | 0.5 to 5 | 0.05 to 0.5

Further lines, results first:

IC50 [1] [µM] | IC50 [2] [µM] | Compound
0.5 to 5 | 0.05 to 0.5 | CC(CNC(=O)CC(N)c1ccc(C(=O)Nc2ccncc2)cc1)c1ccccc1 (stereo not shown) [Compound 283, 4-[1-Amino-2-(2-phenyl-propyl-carbamoyl)-ethyl]-N-pyridin-4-yl-benzamide]
0.5 to 5 | 0.05 to 0.5 | CCOc1ccccc1CCNC(=O)CC(N)c1ccc(C(=O)Nc2ccncc2)cc1 (stereo not shown) [Compound 288, 4-{1-Amino-2-[2-(2-ethoxy-phenyl)-ethylcarbamoyl]-ethyl}-N-pyridin-4-yl-benzamide]
0.5 to 5 | 0.05 to 0.5 | COc1cccc(CCNC(=O)CC(N)c2ccc(C(=O)Nc3ccncc3)cc2)c1 (stereo not shown) [Compound 289, 4-{1-Amino-2-[2-(3-methoxy-phenyl)-ethylcarbamoyl]-ethyl}-N-pyridin-4-yl-benzamide]
0.5 to 5 | 0.05 to 0.5 | CCOc1ccc(CCNC(=O)CC(N)c2ccc(C(=O)Nc3ccncc3)cc2)cc1 (stereo not shown) [Compound 290]
0.5 to 5 | 0.05 to 0.5 | COc1ccc(CCNC(=O)CC(N)c2ccc(C(=O)Nc3ccncc3)cc2)cc1 (stereo not shown) [Compound 291, 4-{1-Amino-2-[2-(4-methoxy-phenyl)-ethylcarbamoyl]-ethyl}-N-pyridin-4-yl-benzamide]
0.5 to 5 | 0.05 to 0.5 | NC(CC(=O)NCCc1ccc(Oc2ccccc2)cc1)c1ccc(C(=O)Nc2ccncc2)cc1 (stereo not shown) [Compound 292, 4-{1-Amino-2-[2-(4-phenoxy-phenyl)-ethylcarbamoyl]-ethyl}-N-pyridin-4-yl-benzamide]
5 to 50 | 0.5 to 5 | COc1ccc(CCNC(=O)CC(N)c2ccc(C(=O)Nc3ccncc3)cc2)cc1OC (stereo not shown) [Compound 293, 4-{1-Amino-2-[2-(3,4-dimethoxy-phenyl)-ethylcarbamoyl]-ethyl}-N-pyridin-4-yl-benzamide]
5 to 50 | 0.05 to 0.5 | COc1cc(CCNC(=O)CC(N)c2ccc(C(=O)Nc3ccncc3)cc2)cc(OC)c1 (stereo not shown) [Compound 294, 4-{1-Amino-2-[2-(3,5-dimethoxy-phenyl)-ethylcarbamoyl]-ethyl}-N-pyridin-4-yl-benzamide]
5 to 50 | 0.05 to 0.5 | COc1ccc(OC)c(CCNC(=O)CC(N)c2ccc(C(=O)Nc3ccncc3)cc2)c1 (stereo not shown) [Compound 295, 4-{1-Amino-2-[2-(3,6-dimethoxy-phenyl)-ethylcarbamoyl]-ethyl}-N-pyridin-4-yl-benzamide]
0.5 to 5 | 0.05 to 0.5 | NC(CC(=O)NCCc1ccccc1Cl)c1ccc(C(=O)Nc2ccncc2)cc1 (stereo not shown) [Compound 297, 4-{1-Amino-2-[2-(2-chloro-phenyl)-ethylcarbamoyl]-ethyl}-N-pyridin-4-yl-benzamide]
0.5 to 5 | 0.05 to 0.5 | CC(Cc1ccc(Cl)cc1)NC(=O)CC(N)c1ccc(C(=O)Nc2ccncc2)cc1 (stereo not shown) [Compound 300, 4-{1-Amino-2-(2-(4-chloro-phenyl)-1-methyl-ethylcarbamoyl]-ethyl}-N-pyridin-4-yl-benzamide]
0.5 to 5 | 0.05 to 0.5 | NC(CC(=O)NCCc1c(Cl)cccc1Cl)c1ccc(C(=O)Nc2ccncc2)cc1 (stereo not shown) [Compound 302]
0.5 to 5 | 0.05 to 0.5 | NC(CC(=O)NCCc1ccc(Cl)cc1Cl)c1ccc(C(=O)Nc2ccncc2)cc1 (stereo not shown) [Compound 303, 4-{1-Amino-2-[2-(2,4-dichloro-phenyl)-ethylcarbamoyl]-ethyl}-N-pyridin-4-yl-benzamide]
0.5 to 5 | 0.05 to 0.5 | NC(CC(=O)NCCc1ccc(Cl)c(Cl)c1)c1ccc(C(=O)Nc2ccncc2)cc1 (stereo not shown) [Compound 304]
0.5 to 5 | 0.05 to 0.5 | NC(CC(=O)NCCc1ccccc1F)c1ccc(C(=O)Nc2ccncc2)cc1 (stereo not shown) [Compound 305, 4-{1-Amino-2-[2-(2-fluoro-phenyl)-ethylcarbamoyl]-ethyl}-N-pyridin-4-yl-benzamide]
0.5 to 5 | 0.05 to 0.5 | Cc1ccc2[nH]cc(CCNC(=O)CC(N)c3ccc(C(=O)Nc4ccncc4)cc3)c2c1 (stereo not shown) [Compound 314, 4-{1-Amino-2-[2-(5-methyl-1H-indol-3-yl)-ethylcarbamoyl]-ethyl}-N-pyridin-4-yl-benzamide]
0.5 to 5 | 0.05 to 0.5 | CC(Cc1c[nH]c2ccccc12)NC(=O)CC(N)c1ccc(C(=O)Nc2ccncc2)cc1 (stereo not shown) [Compound 315, 4-{1-Amino-2-[2-(1H-indol-3-yl)-1-methyl-ethylcarbamoyl]-ethyl}-N-pyridin-4-yl-benzamide]
